Test results published in PMC4901321, “Screening of saponins and sapogenins from Medicago species as potential PPARγ agonists and X-ray structure of the complex PPARγ/caulophyllogenin” (Scientific Reports, 2016).
Entries after “also recorded” stand apart in the source; their conditions may differ. Like-named read-outs stand apart in the source and are kept apart here.

Key:
PPARγ LBD [1] = target: T1, PPARγ LBD (Homo sapiens, UniProt P37231); test: Isothermal titration calorimetry; assay type: binding
T1 construct: PPARγ LBD was expressed as N-terminal His-tagged proteins using a pET28 vector; His tag (N, cleaved yes); made in house; host or cells: E. coli BL21 DE3
T1 sequence (P37231 238-503 limits assumed): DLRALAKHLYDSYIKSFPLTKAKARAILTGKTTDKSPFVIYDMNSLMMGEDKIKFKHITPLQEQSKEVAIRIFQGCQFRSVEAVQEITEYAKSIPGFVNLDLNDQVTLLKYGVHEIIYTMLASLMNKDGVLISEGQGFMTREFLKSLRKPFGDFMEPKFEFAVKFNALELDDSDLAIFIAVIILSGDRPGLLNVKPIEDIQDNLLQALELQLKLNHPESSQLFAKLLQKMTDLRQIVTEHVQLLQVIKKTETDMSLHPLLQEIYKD
Description: ITC experiments were performed at 22 °C by using a ITC200 microcalorimeter (MicroCal, Inc., Northampton, MA, USA). […] DMSO was added to the protein solution at the same percentage of the ligand solution (2%) for the experiment with SAP19. The protein solution (50 μM) was placed in the sample cell, and ligand solution (500 μM) was loaded into the syringe injector (PPARγ 40 μM and the ligand 400 μM for the experiment with 13-HODE) . The titrations involved 19 injections of 2 μL each at 150 s intervals. A reference titration of ligand into buffer was used to correct for heats of dilution. Thermodynamic data was processed with Origin 7.0 software (MicroCal). Fitting the isotherms with one-site binding model yealded the values of the association constant (Ka).

PPARγ LBD [2] = target: T1, PPARγ LBD; test: Surface plasmon resonance, PPARγ receptor/saponin or sapogenin interactions; assay type: binding; details: for Kd: koff/kon; for affinity to the nuclear receptor: in words
Description: PPARγ LBD was expressed as N-terminal His-tagged proteins using a pET28 vector and then purified as previously described[40]. Briefly, freshly transformed E. coli BL21 DE3 were grown in LB medium with 30 μg of kanamycin/mL at 310 K to an OD of 0.6. […] Cells were harvested and resuspended in a 20 mL/liter culture of Buffer A (20 mM Tris, 150 mM NaCl, 10% glycerol, 1 mM Tris 2-carboxyethylphosphine HCl (TCEP), pH 8) in the presence of protease inhibitors (Complete Mini EDTA-free; Roche Applied Science). Cells were sonicated, and the soluble fraction was isolated by centrifugation (35,000 × g for 45 min). The supernatant was loaded onto a Ni^2+ -nitrilotriacetic acid column (GE Healthcare) and eluted with a gradient of imidazole 0–300 mM in Buffer A (batch method). The pure protein was identified by SDS PAGE. The protein was then dialyzed over buffer A to remove imidazole, and it was cleaved with thrombin protease (GE Healthcare) (10 units/mg) at room temperature for 2 h. The digested mixture was reloaded onto a Ni^2+ -nitriloacetic acid column to remove His tag and the undigested protein. The flow-through was loaded onto a Q-Sepharose HP column (GE Healthcare) and eluted with a gradient of NaCl 0–500 mM in Buffer B (20 mM Tris, 10% glycerol, 1 mM TCEP, pH 8) with a BioLogic DuoFlow FPLC system (Bio-Rad Laboratories, Italy). Finally, the protein was purified by gel-filtration chromatography on a HiLoad Superdex 75 column (GE Healthcare) and eluted with Buffer C (20 mM Tris, 1 mM TCEP, 0.5 mM EDTA, pH 8). The protein was then concentrated at 8 mg/mL using Amicon centrifugal concentrators with a 10 kDa cutoff membrane (Millipore, USA). Part of the protein was used for SPR experiments.
Surface plasmon resonance analyses were performed by using Pioneer AE optical biosensor equipped with COOH5 chips (SensiQ). PPARγ surfaces were prepared by using standard amine-coupling procedures[45] and HBS (Hepes-buffered saline: 20 mM Hepes, 150 mM sodium chloride, 0.005% P20, pH 7.4) as the running buffer. Flow cells were activated for 7 min by injecting 140 μL of 50 mM N-hydroxysuccinimide (NHS):200 mM ethyl-3(3-dimethylamino) propyl carbodiimide (EDC). Fifty μL of a 0.25 mg/mL PPARγ solution (in 10 mM sodium acetate, pH 5.0) were injected for 5 min at 10 μL/min on channels 1 and 3 (channel 2 was used as ref. [3], for a duplicate experiment), followed by a 70-μL injection of ethanolamine to block any remaining activated groups on the surface. […] The screening of the analytes (saponins and sapogenins) was performed using HBS without P20, with 1 mM DTT and 2% DMSO. To collect detailed kinetic data the OneStep[46][47][48] protocol was used, injecting the analytes at a flow rate of 50 μL/min and at the concentration of 100 μM (50 μM for 14 and 15) over the three channels at 20 °C (association phase of 180 s). Five buffer blanks were injected for double referencing . […] A DMSO calibration plot was constructed (buffer sample containing 1–3% (vol/vol) DMSO) to correct for bulk refractive index shifts[49]. Data were collected at a rate of 20 Hz. All sensorgrams were processed by using double referencing[50]. First, the responses from the reference surface (channel 2) were subtracted from the binding responses collected over the reaction surfaces to correct for bulk refractive index changes.

HepG2 cells = test: MTT assay for cell viability; assay type: cell-based, human; details: for IC50: read-out: IC50 (concentration that reduces the cell viability by 50%)
Description: Human hepatocellular liver carcinoma cell line HepG2 (Interlab Cell Line Collection, Genoa, Italy) was cultured in Minimum Essential Medium (MEM) containing 10% heat-inactivated fetal bovine serum, 100 U·mL^−1 of penicillin G, and 100 μg·mL^−1 of streptomycin sulfate at 37 °C in a humidified atmosphere of 5% CO2.
Cell viability was measured using the MTT assay. HepG2 cells were seeded at a density of 1·10^5 cells/well into 96-well flat bottom culture plates containing test compounds (ranging from 200 nM to 100 μM final concentration), in a final volume of 100 μL. […] Control wells lacked inhibitor. After 24 h of incubation at 37 °C in a 5% CO2 atmosphere, 3-(4,5-dimethylthiazole-2-yl)-2,5-diphenyltetrazolium bromide (MTT, 5 mg/mL stock solution) was added to a final concentration of 0.5 mg/mL. To control for background absorbance, six wells of cells were lysed by adding Triton X-100 (0.1% v/v final concentration) immediately prior to the addition of MTT reagent. After incubation under the same conditions for further 3–4 h, the culture medium was removed, the insoluble product dissolved by the addition of 100 μL of solvent (50% DMSO, 50% EtOH v/v), and the absorbance of the well was measured at 570 nm using a PERKIN–ELMER Victor V^3 plate reader. Cell growth inhibition was then calculated using the following Equation,
where V% is the percentage of cell viability, A is the absorbance of treated cultures, Ab is the absorbance of background control, and Ac is the absorbance of control cultures.

PPARγ [3] = test system: PPARγ; parameters: method as in PMID 25487878; details: cited from earlier work
PPARγ [4] = target: T2, PPARγ (Homo sapiens, UniProt P37231); test: Displacement experiments against rosiglitazone (antagonist behavior, transactivation); assay type: cell-based
T2 construct: expressed in transfected cells; host or cells: HepG2
T2 sequence (P37231 238-503 limits assumed): T1 sequence (P37231 238-503 limits assumed)
Description: The antagonist behavior of the above compounds was also evaluated in displacement experiments against rosiglitazone.
For transactivation assays, 1·10^5 cells per well were seeded in a 96-well plate and transfected after 24 h with K2 Transfection System (Biontex Laboratories GmbH), according to the manufacturer’s protocol using 0.20 μg/well of DNA. Cells were transfected with expression plasmids encoding the fusion protein Gal4-PPARα-LBD or Gal4-PPARγ-LBD, pGal5TKpGL3, and pCMVβgal to normalize the transfection efficacy. 24 h after transfection, medium was replaced with fresh complete growth medium supplemented with test compounds (ranging from 200 nM to 100 μM), reference compounds Wy-14,643 (10 μM) and rosiglitazone (2 μM), or DMSO 0.1%. After further 24 h of incubation cells were lysed and luciferase activity in cell extracts was determined by a luminometer (VICTOR^3 V Multilabel Plate Reader, PerkinElmer, Monza, Italy) and normalized for β-galactosidase activity. Fold induction activity was calculated and plotted using GraphPad Prism5 software.

[5] = ITC fit, OneSites model, Supplementary Fig. S3
[6] = SPR, 20 °C, 1:1 model, for 2:1 model fits the first value (high affinity site), error in parentheses

CCCCC[C@H](O)/C=C/C=C\CCCCCCCC(=O)O [13-(S)-HODE]
K (association constant) (PPARγ LBD [1]; [5]): 106000 M⁻¹ | ΔH (PPARγ LBD [1]; [5]): -2.206 kcal/mol | ΔS (PPARγ LBD [1]; [5]): 15.5 cal/mol/deg | ΔH (PPARγ LBD [1]; ITC, 22 °C): -2.21 kcal/mol | −TΔS (PPARγ LBD [1]; ITC, 22 °C): -4.56 kcal/mol | Kd (PPARγ LBD [1]; ITC, 22 °C, one-site model): 9.4 µM

C[C@@H]1O[C@@H](O[C@H]2[C@H](O[C@H]3[C@H](O[C@H]4CC[C@@]5(C)[C@@H](CC[C@]6(C)[C@@H]5CC=C5[C@@H]7CC(C)(C)C[C@@H](O)[C@]7(C)CC[C@]56C)[C@@]4(C)CO)O[C@H](C(=O)O)[C@@H](O)[C@@H]3O)O[C@H](CO)[C@H](O)[C@@H]2O)[C@H](O)[C@H](O)[C@H]1O [SAP17, soyasaponin I]
Koff (PPARγ LBD [2]): 1.68 s⁻¹ | Kd (PPARγ LBD [2]; Kd, SPR, 1:1 model, for 2:1 model fits the first value (high affinity site)): 32.5 µM | cytotoxicity (HepG2 cells; HepG2, concentrations up to 100 μM): did not show cytotoxicity; also recorded: did not show any cytotoxic activity | IC50 (HepG2 cells; Homo sapiens, HepG2, 24 h): > 100 µM

CC1(C)CC[C@]2(C(=O)O)CC[C@]3(C)C(=CC[C@@H]4[C@@]5(C)CC[C@H](O)[C@@](C)(CO)[C@@H]5CC[C@]43C)[C@@H]2C1 [SAP20, hederagenin]
affinity to the nuclear receptor (PPARγ LBD [2]; SPR): didn’t show affinity | Kd (PPARγ LBD [2]; SPR, 1:1 model, for 2:1 model fits the first value (high affinity site), read-out: Kd): > 1000 µM

CC1(C)CC[C@]2(C(=O)O)CC[C@]3(C)C(=CCC4[C@@]5(C)C[C@H](O)[C@H](O)[C@@](C)(CO)C5CC[C@]43C)C2C1 (stereo partly drawn) [SAP21, bayogenin]
affinity to the nuclear receptor (PPARγ LBD [2]; SPR): didn’t show affinity

CC1(C)C[C@@H](O)[C@]2(C)CC[C@]3(C)C(=CC[C@@H]4[C@@]5(C)CC[C@H](O)[C@](C)(CO)[C@@H]5CC[C@]43C)[C@@H]2C1 [SAP24, soyasapogenol B]
affinity to the nuclear receptor (PPARγ LBD [2]; SPR): didn’t show affinity

CC(C)=CCC[C@](C)(O)[C@H]1CC[C@]2(C)[C@@H]1[C@H](O)C[C@@H]1[C@@]3(C)CC[C@H](O)C(C)(C)[C@@H]3[C@@H](O)C[C@]12C [protopanaxatriol]
activity towards PPARγ (PPARγ [3]): antagonist activity

echinocystic acid [SAP18]
reduction of the effects of rosiglitazone (PPARγ [4]; at 5 μM): 40% | antagonist behavior towards PPARγ (PPARγ [4]; in words): antagonist activity | Koff (PPARγ LBD [2]; SPR, 2:1 molecular interaction model, second value in cell (second site)): 0.715(0.002) s^−1 | Koff (PPARγ LBD [2]; [6]): 0.0014 s⁻¹ | Kon (PPARγ LBD [2]; [6]): 144.8(0.2) M^−1s^−1 | IC50 (HepG2 cells; HepG2, MTT, 24 h): 4.1 ± 0.4 µM
